The values that follow come from PubChem BioAssay AID1159561 (GlaxoSmithKline (GSK), 2015).

As a reminder, the IC50 is the concentration that gives 50% inhibition.

Calls of active or inactive are those of the source.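 Rule for the calls: active = toxic to mouse fibroblast host cells, with IC50 below 50 µM; inactive = the rest.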

This assay relates to NIH-3T3 viability, ATP luminescence. Description: murine fibroblast viability via ATP level – cell-based, murine fibroblasts, cytotoxicity control for Trypanosoma cruzi inhibitor project (AID 1159561). Particulars: 4 days.
In the case of `O=C(Cn1cnc2cc([N+](=O)[O-])ccc2c1=O)NCCc1ccc(Cl)cc1Cl`, the IC50 was > 50 µM (inactive).
With `O=S(=O)(c1cccc(CSc2nnc(-c3ccc4c(c3)OCO4)o2)c1)N1CCOCC1` the figure was 16 µM; with `O=C(CCCn1cnc([N+](=O)[O-])n1)Nc1cccc(Cl)c1`, > 50 µM (inactive).
Consider `O=C(NCCc1cccnc1)c1csc(-c2ccccc2)n1`, for which the IC50 is 50 µM.
With `CCC(=O)Nc1ccc(C(=O)Nc2ccccc2-c2ccccc2)cc1` the figure was > 50 µM (inactive).
In the case of `CN(Cc1ccc(C(N)=O)cc1)C(c1ccc(F)cc1)c1cccnc1` (stereo unspecified), the IC50 was 32 µM.
With `CC(C)(C)C(O)(CCc1ccc(Cl)cc1)Cn1cncn1` (stereo unspecified) the figure was > 50 µM (inactive); with `Cn1nccc1-c1cc(OC(CN)c2ccccc2)cnc1-c1ccco1` (stereo unspecified), 20 µM; with `O=C(NCCNc1noc(-c2ccc([N+](=O)[O-])cc2)n1)c1ccc(Cl)cc1`, > 50 µM (inactive).
For `N#Cc1ccc(S(=O)(=O)N2CCN(Cc3cccc(-c4ccncc4)c3)CC2)cc1` the value was 13 µM; for `Cc1c(C#N)c([N+](=O)[O-])nn1Cc1cccc(Cl)c1Cl`, 40 µM; for `Cc1ccc(NC(=O)C(C)n2nc([N+](=O)[O-])c(Br)c2C)cc1Cl` (stereo unspecified), 13 µM.
In the case of `CCN(CC)S(=O)(=O)c1ccc(Cn2nc(C(=O)Nc3ccncn3)c3ccccc32)cc1`, the concentration for half-maximal inhibition (IC50) was 40 µM.
Consider `O=C(Nc1ccc(Br)cn1)c1ccc(Cn2cnc([N+](=O)[O-])n2)cc1`, for which the IC50 was > 50 µM (inactive).
For `CCn1nccc1CN(C)C(=O)C=Cc1ccc(Cl)cc1` the value was > 50 µM (inactive); for `O=S(=O)(NCC(c1cccnc1)N1CCN(c2ccc(F)cc2)CC1)c1cccs1` (stereo unspecified), > 50 µM (inactive); for `CS(=O)(=O)NC1CCC(Oc2cc3cnccc3cc2-c2ccsc2)CC1` (stereo unspecified), 16 µM.
As for `O=C1CN(C2CCCc3c(OCc4ccncc4)cccc32)C(=O)N1C1CCCCC1` (stereo unspecified), the IC50 is > 50 µM (inactive).
For `Cc1cc(N(C)C)nc(Nc2ccccc2C)n1`, the IC50 was 40 µM.
With `Cc1cc(N(C)C)nc2ccc(Cc3cnc(N)nc3N)cc12` the figure was 10 µM.
For the molecule `CC(C)Oc1cccc(N2CCC(C(=O)N3CCCN(C(C)C)CC3)CC2)c1`, the IC50 was 32 µM.
With `O=c1ccc2ccc(F)c3c2n1C[C@H]3CN1CCC(NCc2cc3ccccc3o2)CC1` the figure was 20 µM; with `O=c1[nH]cnc2c([C@@H]3O[C@H](CO)[C@@H](O)[C@H]3O)[nH]nc12`, > 50 µM (inactive); with `CCCn1c(NC(=O)Cc2ccc(Cl)cc2)nc2ccccc21`, > 50 µM (inactive).
With `Nc1ncnc2c1ncn2[C@@H]1O[C@H](CO)C[C@H]1O` the figure was > 50 µM (inactive).
With `O=C(NC(c1ccc(Cl)cc1)c1cnccn1)C1CCN(C(=O)Nc2cccc(C(F)(F)F)c2)CC1` (stereo unspecified) the figure was 40 µM; with `O=c1oc2ccccc2n1C1CCN(Cc2ccccc2-c2cccnc2)CC1`, 16 µM.
As for `OC1CCC(Nc2nccc(-c3sc(C4CCOCC4)nc3-c3ccc(F)c(F)c3)n2)CC1` (stereo unspecified), the half-maximal inhibitory concentration (IC50) was 40 µM.
Consider `CC(C(=O)Nc1ccc(Br)cc1)N1CCN(c2ccc([N+](=O)[O-])cc2)CC1` (stereo unspecified), for which the IC50 is > 50 µM (inactive).
With `CN(Cc1nnnn1C1CCN(Cc2ccc(-n3ccnc3)cc2)CC1)c1ccc(F)cc1F` the figure was 25 µM.
With `O=C(c1cc2cc(Cl)ccc2[nH]1)N1CCCCC1c1cccnc1` (stereo unspecified) the figure was 40 µM; with `Clc1ccc(OCCN2CCCCC2c2cccnc2)c(Cl)c1` (stereo unspecified), 25 µM.
Turning to `O=C(CSc1ccc(F)cc1)N[C@@H](Cc1cnc[nH]1)C(=O)NCCc1ccccc1`, the IC50 is 13 µM.
For `CNc1c(C(N)=O)c(-c2ccc3scnc3c2)nn1CC(F)(F)F` the value was 20 µM; for `O=C(N1CCc2ccccc2CC1)C1(C(=O)N2CCC(n3c(=O)[nH]c4ncccc43)CC2)CC1`, 40 µM; for `COc1ccc(NS(=O)(=O)c2cc(NC(=O)c3ccc([N+](=O)[O-])s3)ccc2OC)cc1`, > 50 µM (inactive).
